Earlier results, collected in patent publication US8288445B2, “Stable pharmaceutical products” (Nycomed GmbH, priority 2003, dated 2012).

Settings: disclosed in U.S. Pat. No. 6,268,533 and WO 00/21487

For `COc1ccc(C[C@@H](C)NC[C@H](O)c2ccc(O)c(NC=O)c2)cc1.O=C(O)C(O)C(O)C(=O)O` [L-(+)-tartrate salt of R,R-formoterol], the hygroscopicity is given as “non-hygroscopic”.
